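Dose response: 5 concentrations. Exposure: 48 h. Format: 96-well plates. Endpoint: linear interpolation; highest concentration if not reached. The concentration for full growth arrest is given as TGI.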

What all share (test): DTP human tumour cell line panel, 48 h
Assay [1] has as its system HOP-92 NSCLC.
In assay [2] the test system is MCF7 breast.
For assay [3], the system named is K-562 leukemia.
Assay [4] deals with EKVX NSCLC.
Assay [5] has as its system NCI-H23 lung.
In assay [6] the test system is OVCAR-5 ovarian.
Assay [7] relates to SK-OV-3 ovarian.
In assay [8] the test system is RXF 393 renal.
Assay [9] has as its system IGROV1 ovarian.
Assay [10] has as its system U251 CNS.
The subject of assay [11] is MALME-3M melanoma.
Assay [12] deals with SF-539 CNS.
For assay [13], the system named is HCC-2998 colon.

As to `O=S(=O)(Nc1ccccc1S(=O)(=O)c1ccccc1)c1ccccc1`, the total growth inhibition concentration (TGI) in assay [1] is over 100 µM; in assay [2], over 100 µM; in assay [3] it was over 100 µM; in assay [4] it was 97 µM; in assay [5] it was over 100 µM; in assay [6], over 100 µM. Further, the TGI in assay [7], in [8], in assay [9], in assay [10], in assay [11] and in [12] was over 100 µM each time. This compound yielded a TGI in assay [13] of over 100 µM.

`Cc1ccc(S(=O)(=O)C2=c3ncccc3=C3C(=O)c4ccccc4C(=O)C32)cc1` (stereo not drawn): the TGI is over 89.5 µM in [1]; over 100 µM in assay [2]; over 100 µM in [3]; over 100 µM in [4]; over 100 µM in [5]; over 83.9 µM in assay [6]. Also, the TGI is over 100 µM in assay [7]; over 31.6 µM in assay [8]; over 62.2 µM in [9]; over 100 µM in assay [10]; over 100 µM in assay [11]; 46.1 µM in assay [12]. The compound also gave a TGI in assay [13] of over 100 µM.

Regarding `CC(=O)OC1CC(OC2C(O)CC(OC3C(O)CC(OC4CCC5(C)C(CCC6C5CC(O)C5(C)C(C7=CC(=O)OC7)CCC65O)C4)OC3C)OC2C)OC(C)C1O` (stereo not drawn) (tested in a mixture with another compound), the total growth inhibition concentration (TGI) amounted to 0.182 µM in [1]; 0.216 µM in assay [2]; 0.0685 µM in assay [3]; 0.0381 µM in [4]; 0.0346 µM in assay [5]; 0.12 µM in [6]. In addition, the concentration for total growth inhibition (TGI) in [7] is 0.162 µM; in [8], 0.0812 µM; in assay [9], 0.176 µM; in assay [10], 0.0801 µM; in assay [11], 0.0479 µM; in assay [12] it was 0.113 µM. In [13], the TGI is 0.463 µM.

`CC(C)(C)OC(=O)C(C1NC(C(=O)O)C(C)(C)S1)N1C(=O)c2ccccc2C1=O` (stereo not drawn): the TGI in assay [1], in assay [2], in assay [3], in assay [4], in assay [5] and in assay [6] was over 100 µM throughout. Besides, the concentration for total growth inhibition (TGI) in assay [7], in assay [8], in assay [9], in [10], in [11] and in assay [12] was over 100 µM throughout. This compound had a TGI in assay [13] of over 100 µM.

On to `Cn1cc(-c2ccc(CCOC3CCCCO3)cc2)c2c(C#N)cccc21` (stereo not drawn), for which the total growth inhibition concentration (TGI) in [1], in [2], in assay [3], in assay [4], in assay [5] and in [6] was over 100 µM in each case. For the same compound, the total growth inhibition concentration (TGI) in assay [7], in [8], in [9], in [10], in assay [11] and in assay [12] was over 100 µM in each case. Further, the TGI in [13] is over 100 µM.

Regarding `CCOC(=O)c1sc2nc(SC)nc(Nc3ccc(OC)c(OC)c3)c2c1N`, the concentration for total growth inhibition (TGI) is 25.4 µM in [1]; over 100 µM in assay [2]; over 100 µM in assay [3]; over 100 µM in [4]; over 100 µM in assay [5]; over 100 µM in assay [6]. Also, the TGI is 52.9 µM in assay [7]; 8.97 µM in assay [8]; over 100 µM in assay [9]; over 100 µM in [10]; over 100 µM in assay [11]; over 100 µM in assay [12]. For the same compound, the TGI in assay [13] was over 100 µM.

As to `COC(=O)[C@]1(c2cc3ccccc3n2S(=O)(=O)c2ccccc2)CC2CCC1NC2` (stereo partly drawn), the TGI in assay [1] stood at 24.4 µM; in assay [2] it was 28 µM; in assay [3] it was 24.4 µM; in assay [4] it was 30.1 µM; in assay [5], 40.1 µM; in assay [6], 29.9 µM. The TGI in assay [7] was 32.8 µM; in assay [8], 25.7 µM; in [9], 33.7 µM; in [10], 26.4 µM; in assay [11], 30.5 µM; in [12], 32.2 µM. The TGI in assay [13] was found to be 21.6 µM.

Take `COc1cc(OC)c(/C=N/N=C(\N)NO)c(OC)c1`: the TGI in assay [1], in assay [2], in assay [3], in assay [4], in assay [5] and in [6] was over 100 µM in each case. Also, the TGI in [7], in [8], in assay [9], in [10], in [11] and in assay [12] was over 100 µM each time. The TGI in [13] is over 100 µM.

Take `CCCNc1[nH]c(C(C)=O)c(N)c1C(=S)Nc1ccccc1`: the TGI in assay [1] was over 100 µM; in assay [2], 45.4 µM; in [3], over 100 µM; in assay [4] it was over 100 µM; in assay [5], over 100 µM; in assay [6] it was over 100 µM. Besides, the TGI was over 100 µM in [7]; 65.3 µM in [8]; over 100 µM in [9]; over 100 µM in [10]; 83.9 µM in assay [11]; 65.4 µM in assay [12]. In assay [13], the TGI is over 100 µM.

For the compound `COC(=O)C(Cc1ccccc1)NS(=O)(=O)c1ccc(-c2c3nc(c(-c4ccc(S(=O)(=O)NC(Cc5ccccc5)C(=O)OC)cc4)c4ccc([nH]4)c(-c4ccc(S(=O)(=O)NC(Cc5ccccc5)C(=O)OC)cc4)c4nc(c(-c5ccc(S(=O)(=O)NC(Cc6ccccc6)C(=O)OC)cc5)c5ccc2[nH]5)C=C4)C=C3)cc1` (stereo not drawn), the TGI in [1], in [2], in assay [3], in [4], in [5] and in [6] was over 100 µM in each case. Moreover, the TGI in assay [7], in assay [8], in [9], in [10], in assay [11] and in assay [12] was over 100 µM throughout. Besides, the TGI in assay [13] is over 100 µM.

Turning to `COC(=O)C1=NN2c3ccccc3CN([C@@H](C)c3ccccc3)C(=O)[C@@H]2C1`, the TGI is over 100 µM in assay [1]; over 100 µM in assay [2]; 76.6 µM in assay [3]; over 100 µM in assay [4]; over 100 µM in assay [5]; over 100 µM in assay [6]. For the same compound, the TGI in assay [7] is over 100 µM; in [8], over 100 µM; in assay [9], over 100 µM; in assay [10], over 100 µM; in assay [11] it was 62.8 µM; in assay [12], over 100 µM. The TGI in assay [13] was over 100 µM.

Consider `COC(=O)c1ccccc1CC1Cc2cc3c(cc2C1)CCC3`, for which the total growth inhibition concentration (TGI) in [1] is 71.2 µM; in assay [2], over 100 µM; in assay [3], 61.1 µM; in assay [4] it was over 100 µM; in assay [5] it was over 100 µM; in assay [6] it was over 100 µM. Moreover, the TGI in assay [7] was over 100 µM; in assay [8], 63.6 µM; in [9], over 100 µM; in assay [10] it was over 100 µM; in [11], 52 µM; in assay [12], over 100 µM. In addition, in assay [13], the TGI was over 100 µM.

`CC1C(c2ccccc2O)c2cc3c(cc2OC1N1CCCC1)OCO3` (stereo not drawn): the TGI in [1] is 69.3 µM; in [2] it was 67.4 µM; in assay [3] it was 41.8 µM; in [4], over 100 µM; in [5] it was over 100 µM; in [6] it was over 100 µM. Also, the TGI was over 100 µM in assay [7]; 31.8 µM in assay [8]; over 100 µM in assay [9]; over 100 µM in assay [10]; 80.2 µM in assay [11]; 50.2 µM in assay [12]. The same compound came in with a TGI in assay [13] of over 100 µM.

For `O=C1c2c(Br)sc(Br)c2[C@H]2NC(=S)O[C@@H]12`, the TGI in [1] worked out at 33.8 µM; in [2] it was 31.8 µM; in [3], 20.7 µM; in assay [4] it was 39.5 µM; in [5], 29.9 µM; in assay [6], 35.2 µM. The TGI was determined as 33.3 µM in assay [7]; 27.9 µM in assay [8]; 32 µM in assay [9]; 26.7 µM in assay [10]; 29.8 µM in assay [11]; 33.6 µM in assay [12]. In addition, in assay [13], the TGI came out at 34.8 µM.

Regarding `COc1cc(Cn2c3c(c4cc(O)ccc42)C(=O)c2ccccc2C3=O)cc(OC)c1`, the TGI in assay [1] amounted to 19.7 µM; in [2], 50.6 µM; in assay [4] it was 48.2 µM; in [5], 32.2 µM; in assay [6], 32.9 µM; in assay [7], 6.68 µM. In addition, the TGI in assay [8] was found to be 35.5 µM; in assay [9] it was 13 µM; in assay [10] it was 18.6 µM; in assay [11], 43.8 µM; in assay [12] it was 7.38 µM; in [13], 37.3 µM.

As to `C[C@H](CCc1nc(C#N)c(N)o1)[C@H]1CC[C@H]2[C@@H]3[C@@H](O)CC4C[C@@H](O)CC[C@]4(C)[C@H]3C[C@@H](O)[C@]12C` (stereo partly drawn), the TGI is 67 µM in [1]; over 95.4 µM in assay [2]; 86.4 µM in assay [3]; 98.1 µM in assay [4]; 58.5 µM in [5]; 58.3 µM in assay [6]. Moreover, the concentration for total growth inhibition (TGI) was 73.8 µM in assay [7]; 35.9 µM in assay [8]; 33.2 µM in assay [9]; 49.5 µM in [10]; 29.3 µM in assay [11]; 59.5 µM in [12]. Also, in [13], the TGI is 36.5 µM.

In the case of `CCCCc1ccc(Nc2nc(Cl)c3[nH]cnc3n2)cc1`, the TGI in assay [1] was 26.3 µM; in assay [2] it was 37.9 µM; in assay [3], over 100 µM; in [4], over 100 µM; in assay [5], 33.9 µM; in assay [6], over 100 µM. In addition, the total growth inhibition concentration (TGI) in [7] turned out to be 99.8 µM; in assay [8], 31.6 µM; in [9] it was 71.8 µM; in [11] it was 42.2 µM; in assay [12], 32.7 µM; in assay [13] it was 41.2 µM.

As for `CN1N=C(c2ccncc2)OC1c1ccc(Cl)c(Cl)c1` (stereo not drawn), the TGI in [1], in assay [2], in assay [3], in assay [4], in assay [5] and in assay [6] was over 100 µM in each case. The TGI in assay [7], in assay [8], in [9], in assay [10], in [11] and in assay [12] was over 100 µM each time. The TGI in [13] was over 100 µM.

`CC[C@H](CCCCC1CC[C@@H]2CC(=O)C[C@H]12)OC` (stereo partly drawn): the concentration for total growth inhibition (TGI) in assay [1], in [2], in assay [3], in [4], in assay [5] and in assay [6] was over 100 µM in each case. Also, the TGI in assay [7], in [8], in assay [9], in [10], in [11] and in assay [12] was over 100 µM throughout. The TGI in assay [13] is over 100 µM.

As to `O=C(O)/C(=C\c1ccccc1)Cc1ccccc1`, the TGI in assay [1], in [2], in [3], in assay [4], in assay [5] and in assay [6] was over 100 µM each time. For the same compound, the TGI in [7], in assay [8], in assay [9], in assay [10], in assay [11] and in assay [12] was over 100 µM throughout. The compound also registered a concentration for total growth inhibition (TGI) in assay [13] of over 100 µM.

What is called TGI is the concentration at which net growth stops. Low readings indicate more potent growth arrest, high ones less potent growth arrest.

Values taken from PubChem BioAssay (NCI).
